# T1: GK association with nNOS (Mus musculus, UniProt P52792)
# T1 construct: the inventors immunoprecipitated endogenous GK from cell lysates; endogenous in cells; host or cells: βTC3 cells
# T1 sequence (P52792 1-465): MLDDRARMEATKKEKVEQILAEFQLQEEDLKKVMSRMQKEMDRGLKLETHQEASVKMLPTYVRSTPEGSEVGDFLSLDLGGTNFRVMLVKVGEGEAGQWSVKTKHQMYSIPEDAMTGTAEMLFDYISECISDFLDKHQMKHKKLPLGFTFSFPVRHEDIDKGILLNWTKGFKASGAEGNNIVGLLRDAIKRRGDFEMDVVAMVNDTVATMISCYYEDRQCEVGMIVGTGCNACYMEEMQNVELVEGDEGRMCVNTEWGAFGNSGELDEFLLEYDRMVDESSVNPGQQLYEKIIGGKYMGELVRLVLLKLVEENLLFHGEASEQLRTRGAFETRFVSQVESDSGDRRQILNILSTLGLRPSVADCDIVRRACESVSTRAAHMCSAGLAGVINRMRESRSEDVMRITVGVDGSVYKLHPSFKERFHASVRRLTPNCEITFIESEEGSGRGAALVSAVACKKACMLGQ
# Key:
# [1] = system: GK association with nNOS; assay type: binding; details: 1 mM DEANO in PBS, 37° C., 10 min
# [2] = target: T1, GK association with nNOS; assay type: binding; details: 1 mM DEANO in PBS, 37° C., 10 min
# [3] = system: GK; test: Intramolecular FRET of CFP-GK-YFP (GK conformation); assay type: cell-based; details: 5 min; for Insulin-stimulated changes in FRET of mutant CFP-GK-YFP: 100 nM insulin
# Method: (§1) Cell culture. βTC3 cells were cultured as described (Rizzo et al., 2002) and were transferred to media containing 1 g/L glucose overnight prior to observation. […] For FRAP, CFP-GK-YFP FRET, and nitrosylation experiments, DNA plasmids containing GK-YFP constructs, proinsulin-CFP, or CFP-GK-YFP were introduced by electroporation prior to seeding as previously described (Rizzo et al., 2002). For studies requiring co-transfection, plasmid DNA encoding the indicated constructs were transfected using either a ratio of (2 μg nNOS-CFP:1 μg GK-YFP:6 μl FUGENE (Roche Applied Science)) or of (1 μg nNOS-CFP-nuc:2 μg GK-YFP:6 μl FUGENE). Transfection was for 4 h in serum-free media, followed by replacement with low-glucose media. Observation took place the following day.
# (§2) Microscopy. βTC3 cells were labeled with 5 μM DAF-FM diacetate (Molecular Probes) for 25 min at 25° C. in BSA free BMHH. Observation was with 488 nm excitation and 505–530 nm collection by laser scanning confocal microscopy (Zeiss LSM510). During observation, cells were heated to 32° C. using a Bioptechs Delta T system. FRAP and intramolecular FRET measurements were performed on cultured βTC3 cells as previously described (Rizzo et al., 2002). Statistical significance (p<0.05 by ANOVA or t-test as appropriate) is denoted by * and was determined from at least three granules in the same region or at least three cells for the FRET studies as compared to pre-treatment FRET ratios. Data shown is representative of at least 3 independent trials. Observation of nNOS-CFP-nuc and GK-YFP were performed using the same filter settings as the FRAP measurements. FRET between nNOS-CFP and GK-YFP was observed using 864 nm two-photon excitation along with a KP700/514 main beam splitter and standard CFP and YFP collection using a 40×, 1.3NA F-FLUAR oil immersion objective lens. For the FRET measurements, the temperature was maintained at 37° C. using a Zeiss S-M incubator controlled by the CTI temperature regulator along with humidification and an objective heater.
# [4] = system: GK; test: FRAP of GK-YFP to CFP-labeled insulin granules (GK association with secretory granules); assay type: cell-based; details: for Insulin-stimulated FRAP of mutant GK-YFP to CFP labeled granules: βTC3 cells, mutant GK-YFP and proinsulin-CFP
# Method: as §1, §2
# [5] = system: GK; test: Detection of S-nitrosylated GK (biotinylation, neutravidin-agarose or immunoprecipitation, Western blot); assay type: cell-based; details: for Nitrosylated GK in neutravidin precipitates: βTC3 cell lysates, insulin alone or L-NAME in addition to insulin; for S-nitrosylation of mutant GK-YFP: mutant GK-YFP constructs expressed in βTC3 cells
# Method: Detection of nitrosylated proteins. S-nitrosylated proteins were biotinylated and isolated from cell lysates using the protocol described (Jaffrey et al., 2001). Briefly, cells were lysed in HEN buffer (250 mM Hepes pH7.7, 1 mM EDTA, 0.1 mM neocuproine) using 0.5% triton X-100 and 0.5% Cholate prior to protection of free cysteines with methyl methanethiosulfonate (Pierce) and derivatization of S-nitrosylated cysteines with ascorbic acid and biotin-HPDP (Pierce). Biotinylated proteins were either isolated by binding to neutravidin-agarose (Pierce), followed by 5 washes with a high salt buffer (20 mM Hepes pH 7.7, 600 mM NaCl, 1 mM EDTA and 0.5% Triton X-100) and elution in HNE buffer (20 mM Hepes pH 7.7, 100 mM NaCl, 1 mM EDTA) plus 100 mM 2-mercaptoethanol. Alternatively, GK-YFPs were isolated by immunopreciptation with A.V. Peptide Antibody (BD BioSciences Clontech) preconjugated to IgG agarose (Sigma). Western blots were then performed on eluted proteins to detect GK and nitrosylated proteins.
# [6] = system: interaction between nNOS and GK; test: FRET between nNOS-CFP and GK-YFP in living cells (two-photon microscopy); assay type: cell-based, rat; details: insulin 100 nM
# Method: as §1
# Generation of constructs. […]
# (§3) Microscopy. βTC3 cells were labeled with 5 μM DAF-FM diacetate (Molecular Probes) for 25 min at 25° C. in BSA free BMHH. […] Statistical significance (p<0.05 by ANOVA or t-test as appropriate) is denoted by * and was determined from at least three granules in the same region or at least three cells for the FRET studies as compared to pre-treatment FRET ratios. […]
# [7] = system: βTC3 cells; test: NO production in βTC3 cells loaded with DAF-FM (confocal microscopy); assay type: cell-based; details: βTC3 cells starved 4 h, 100 nM insulin vs untreated cells
# Method: as §1
# as §3, with “BMHH. Observation was with 488 nm excitation and 505–530 nm collection by laser scanning confocal microscopy (Zeiss LSM510). During observation, cells were heated to 32° C. using a Bioptechs Delta T system.” for “BMHH.”
molecule,measurement,setting,value
"CCN(CC)/[N+]([O-])=N/O.CCNCC [DEANO, diethylamine nitric oxide]",Elution of nNOS from GK(C371S)-YFP precipitates,[1],not from GK(C371S)-YFP precipitates
same,Elution of nNOS from endogenous GK and GK-YFP precipitates,[2],resulted in elution of nNOS
"COC(=O)[C@@H](N)CCCNC(=N)N[N+](=O)[O-] [L-NAME, N^G-nitro-L-arginine-methyl ester, reference compound]",Effect on insulin-induced decrease of the CFP-GK-YFP FRET ratio,"[3]; L-NAME 5 mM, 10 min before insulin 100 nM",prevented the decrease in the FRET ratio
same,Effect on insulin-stimulated GK-YFP FRAP,"[4]; L-NAME 5 mM, 10 min pretreatment, then insulin 100 nM, 5 min",blocked the stimulatory effects of insulin on GK-YFP FRAP
same,Glucose stimulated activation of GK FRAP and FRET,"[4]; treatment with L-NAME, data not shown",sensitive
same,Nitrosylated GK in neutravidin precipitates,[5],not
"CC(=O)N[C@H](C(=O)O)C(C)(C)SN=O [SNAP, S-nitroso-N-acetylpenicillamin]",Reversal of NOS inhibition in GK-YFP FRAP,"[4]; SNAP 100 μM, 1 min, after L-NAME and insulin",effects of NOS inhibition were reversed
insulin,FRET between nNOS-CFP and GK(C371S)-YFP,[6],increased
same,FRET between nNOS-CFP and GK-YFP,[6],decrease
same,NO production (fluorescence of DAF-FM),[7],rapid increase in the fluorescence of DAF-FM
same,FRET ratio between CFP and YFP on opposing ends of GK,"[3]; βTC3 cells, insulin 100 nM",decreases
same,Nitrosylated GK in neutravidin precipitates,[5],detected
"GK-C371S: glucokinase with cysteine 371 mutated to serine; recombinant His-tagged, or YFP-tagged in cells (protein, UniProt P35557 1-465, looked up, variant C371S, His tag or YFP fusion, glucokinase with cysteine 371 mutated to serine; recombinant His-tagged, or YFP-tagged in cells) Hexokinase-4: MLDDRARMEAAKKEKVEQILAEFQLQEEDLKKVMRRMQKEMDRGLRLETHEEASVKMLPTYVRSTPEGSEVGDFLSLDLGGTNFRVMLVKVGEGEEGQWSVKTKHQMYSIPEDAMTGTAEMLFDYISECISDFLDKHQMKHKKLPLGFTFSFPVRHEDIDKGILLNWTKGFKASGAEGNNVVGLLRDAIKRRGDFEMDVVAMVNDTVATMISCYYEDHQCEVGMIVGTGCNACYMEEMQNVELVEGDEGRMCVNTEWGAFGDSGELDEFLLEYDRLVDESSANPGQQLYEKLIGGKYMGELVRLVLLRLVDENLLFHGEASEQLRTRGAFETRFVSQVESDTGDRKQIYNILSTLGLRPSTTDCDIVRRASESVSTRAAHMCSAGLAGVINRMRESRSEDVMRITVGVDGSVYKLHPSFKERFHASVRRLTPSCEITFIESEEGSGRGAALVSAVACKKACMLGQ",Insulin-stimulated changes in FRET of mutant CFP-GK-YFP,[3]; βTC3 cells,stopped
same,Insulin-stimulated FRAP of mutant GK-YFP to CFP labeled granules,[4],stopped insulin-stimulated FRAP
same,S-nitrosylation of mutant GK-YFP,[5],eliminated GK nitrosylation
"C364S: glucokinase with cysteine 364 mutated to serine, YFP-tagged construct (protein, UniProt P35557 1-465, looked up, variant C364S, YFP fusion, glucokinase with cysteine 364 mutated to serine, YFP-tagged construct) Hexokinase-4: MLDDRARMEAAKKEKVEQILAEFQLQEEDLKKVMRRMQKEMDRGLRLETHEEASVKMLPTYVRSTPEGSEVGDFLSLDLGGTNFRVMLVKVGEGEEGQWSVKTKHQMYSIPEDAMTGTAEMLFDYISECISDFLDKHQMKHKKLPLGFTFSFPVRHEDIDKGILLNWTKGFKASGAEGNNVVGLLRDAIKRRGDFEMDVVAMVNDTVATMISCYYEDHQCEVGMIVGTGCNACYMEEMQNVELVEGDEGRMCVNTEWGAFGDSGELDEFLLEYDRLVDESSANPGQQLYEKLIGGKYMGELVRLVLLRLVDENLLFHGEASEQLRTRGAFETRFVSQVESDTGDRKQIYNILSTLGLRPSTTDSDIVRRACESVSTRAAHMCSAGLAGVINRMRESRSEDVMRITVGVDGSVYKLHPSFKERFHASVRRLTPSCEITFIESEEGSGRGAALVSAVACKKACMLGQ",Insulin-stimulated changes in FRET of mutant CFP-GK-YFP,[3]; βTC3 cells,did not have a significant effect
same,Insulin-stimulated FRAP of mutant GK-YFP to CFP labeled granules,[4],did not have a significant effect
same,S-nitrosylation of mutant GK-YFP,[5],slight decrease in the amount of nitrosylated GK
